What was measured:
Format in all cases: in vivo
Paddy rice (Oryza sp.) [1] = assay: Example E: test in sown rice (Brazil), damage to rice; conditions: fentrazamide 250 EC 300 g a.i./ha; spray at BBCH 23 stage of the rice, 29 days after sowing; scored 2 weeks after application; outdoor test Brazil 1999
Description: (§1) To prepare a spray preparation, the active compound preparations are mixed with water. The concentration is adjusted so that the application rate corresponds to 200 l of water/ha.
(§2) Rice seeds are sown in test plots (2 m×5 m) in rice paddies. 29 days after sowing (during the BBCH 23 development stage of the rice; begin of stocking), the spray preparation is applied to the test areas (using a hand-operated sprayer). A few days after the treatment, the soil is flooded to a water depth of 5 cm; the standing water levels are kept constant.
2 weeks after the active compound application, the degree of damage to the rice plants and the herbicidal effect on the emerged weeds Echinochloa crus-galli and Brachiaria plantaginea is scored visually in percent in comparison to an untreated control.
(§3) The figures denote: • 0%=no action/damage (like untreated control) • 100%=total destruction

Acanthospermum hispidum = assay: Example F: test in sown rice (Brazil), herbicidal effect; conditions: fentrazamide 250 EC 300 g a.i./ha; spray at BBCH 12 stage of the rice (2-leaf-stage), 18 days after sowing; scored 3 weeks after application; outdoor test Brazil 1999
Description: as §1
(§4) Rice seeds are sown in test plots (2 m×5 m) in rice paddies. 18 days after sowing (during the BBCH 12 development stage of the rice; corresponds to the 2-leaf-stage), the spray preparation is applied to the test areas (using a hand-operated sprayer).
(§5) 3 weeks after the active compound application, the degree of damage to the rice plants and the herbicidal effect on the emerged weeds Acanthospermum hispidum, Commelina benghalensis, Digitaria sanguinalis and Eleusine indica is scored visually in percent in comparison to an untreated control.
as §3

Commelina benghalensis = assay: as above; conditions: fentrazamide 250 EC 300 g a.i./ha; spray at BBCH 12 stage of the rice (2-leaf-stage), 18 days after sowing; scored 3 weeks after application; outdoor test Brazil 1999
Description: as §1, §4, §5, §3

Digitaria sanguinalis = assay: as above; conditions: fentrazamide 250 EC 300 g a.i./ha; spray at BBCH 12 stage of the rice (2-leaf-stage), 18 days after sowing; scored 3 weeks after application; outdoor test Brazil 1999
Description: as §1, §4, §5, §3

Eleusine indica = assay: as above; conditions: fentrazamide 250 EC 300 g a.i./ha; spray at BBCH 12 stage of the rice (2-leaf-stage), 18 days after sowing; scored 3 weeks after application; outdoor test Brazil 1999
Description: as §1, §4, §5, §3

[2] = test system: Mountain rice (Oryza sp.); assay: Example F: test in sown rice (Brazil), damage to rice; conditions: fentrazamide 250 EC 300 g a.i./ha; spray at BBCH 12 stage of the rice (2-leaf-stage), 18 days after sowing; scored 3 weeks after application; outdoor test Brazil 1999
Description: as §1, §4, §5, §3

Echinochloa crus-galli [3] = assay: Example G: test in sown rice (Philippines), herbicidal effect; conditions: fentrazamide 50 WP 135 g a.i./ha; spray 11 days after sowing (4-leaf-stage); scored 8 weeks after application; outdoor test Philippines 1999
Description: as §1
as §2, with “(2.5 m×2.5” for “(2 m×5”, “11” for “29”, “(4-leaf-stage” for “(during the BBCH 23 development stage”, “rice),” for “rice; begin of stocking),”, “1 day” for “A few days”
(§6) 8 weeks after the active compound application, the degree of damage to the rice plants and the herbicidal effect on the emerged weeds of the species Echinochloa crus-galli is scored visually in percent in comparison to an untreated control.
as §3

Paddy rice (Oryza sp.) [4] = assay: Example G: test in sown rice (Philippines), damage to rice; conditions: fentrazamide 50 WP 135 g a.i./ha; spray 11 days after sowing (4-leaf-stage); scored 8 weeks after application; outdoor test Philippines 1999
Description: as §1
as §2, with “(2.5 m×2.5” for “(2 m×5”, “11” for “29”, “(4-leaf-stage” for “(during the BBCH 23 development stage”, “rice),” for “rice; begin of stocking),”, “1 day” for “A few days”
as §6, §3

Echinochloa crus-galli [5] = assay: Example H: test in sown rice (Thailand), herbicidal effect; conditions: fentrazamide 50 WP 135 g a.i./ha; spray 7 days after sowing (2-leaf-stage); scored 8 weeks after application; outdoor test Thailand 1999
Description: as §1
as §2, with “(2.5 m×2.5” for “(2 m×5”, “7” for “29”, “(2-leaf-stage” for “(during the BBCH 23 development stage”, “rice),” for “rice; begin of stocking),”, “2” for “A few”
(§7) 8 weeks after the active compound application, the degree of damage to the rice plants and the herbicidal effect on the emerged weeds Echinochloa crus-galli and Leptochloa chinensis is scored visually in percent in comparison to an untreated control.
as §3

Leptochloa chinensis = assay: as above; conditions: fentrazamide 50 WP 135 g a.i./ha; spray 7 days after sowing (2-leaf-stage); scored 8 weeks after application; outdoor test Thailand 1999
Description: as §1
as §2, with “(2.5 m×2.5” for “(2 m×5”, “7” for “29”, “(2-leaf-stage” for “(during the BBCH 23 development stage”, “rice),” for “rice; begin of stocking),”, “2” for “A few”
as §7, §3

Paddy rice (Oryza sp.) [6] = assay: Example H: test in sown rice (Thailand), damage to rice; conditions: fentrazamide 50 WP 135 g a.i./ha; spray 7 days after sowing (2-leaf-stage); scored 8 weeks after application; outdoor test Thailand 1999
Description: as §1
as §2, with “(2.5 m×2.5” for “(2 m×5”, “7” for “29”, “(2-leaf-stage” for “(during the BBCH 23 development stage”, “rice),” for “rice; begin of stocking),”, “2” for “A few”
as §7, §3

Echinochloa crus-galli [7] = assay: Example I: test in sown rice (Thailand), herbicidal effect; conditions: fentrazamide 50 WP 135 g a.i./ha; spray 7 days after sowing (2-leaf-stage); scored 3 weeks after application; outdoor test Thailand 1999
Description: as §1
as §2, with “(2.5 m×2.5” for “(2 m×5”, “7” for “29”, “(2-leaf-stage” for “(during the BBCH 23 development stage”, “rice),” for “rice; begin of stocking),”, “2” for “A few”
(§8) 3 weeks after the active compound application, the degree of damage to the rice plants and the herbicidal effect on the emerged weeds Echinochloa crus-galli is scored visually in percent in comparison to an untreated control.
as §3

Paddy rice (Oryza sp.) [8] = assay: Example I: test in sown rice (Thailand), damage to rice; conditions: fentrazamide 50 WP 135 g a.i./ha; spray 7 days after sowing (2-leaf-stage); scored 3 weeks after application; outdoor test Thailand 1999
Description: as §1
as §2, with “(2.5 m×2.5” for “(2 m×5”, “7” for “29”, “(2-leaf-stage” for “(during the BBCH 23 development stage”, “rice),” for “rice; begin of stocking),”, “2” for “A few”
as §8, §3

`CCN(C(=O)n1nnn(-c2ccccc2Cl)c1=O)C1CCCCC1` [(A), 4-(2-chlorophenyl)-N-cyclohexyl-N-ethyl-4,5-dihydro-5-oxo-1H-tetrazole-1-carboxamide] was tested, and the “Damage or action in % Paddy rice (Oryza sp.) found” value (“Damage or action in % Paddy rice” below) (Paddy rice (Oryza sp.) [1]) was 0%, the “Damage or action in % Acantho-spermum hispidum found” value (Acanthospermum hispidum) was 50% and the “Damage or action in % Commelina Bengha-lensis found” value (Commelina benghalensis) was 50%. For the same compound, the “Damage or action in % Digitaria Sanguina-lis found” value (Digitaria sanguinalis) was 50%, the “Damage or action in % Eleusine indica found” value (Eleusine indica) was 50% and the “Damage or action in % Mountain rice (Oryza sp.) found” value [2] was 0%. The “Damage or action in % Echinochloa crus-galli found” value (Echinochloa crus-galli [3]) was 78%, the “Damage or action in % Paddy rice” value (Paddy rice (Oryza sp.) [4]) was 0% and the “Damage or action in % Echinochloa crus-galli found” value (Echinochloa crus-galli [5]) was 47%. The “Damage or action in % Leptochloa chinensis found” value (Leptochloa chinensis) was 38%, the “Damage or action in % Paddy rice” value (Paddy rice (Oryza sp.) [6]) was 3% and the “Damage or action in % Echinochloa crus-galli found” value (Echinochloa crus-galli [7]) was 58%. The “Damage or action in % Paddy rice” value (Paddy rice (Oryza sp.) [8]) was 2%.

Source: patent publication US7202196B2, “Selective herbicide comprising a tetrazolinone derivative” (Bayer Cropscience AG, priority 2001, dated 2007)
